Literature values as cited in patent US20070161683A1, “Certain chemical entities, compositions, and methods” (priority 2005, published 2007).

Tested on: A549 cells
Details: concentration that decreases the rate of cell growth by fifty percent

GI50	SMILES
1000 nM	O=c1[nH]cc(F)c(=O)[nH]1 [5-fluorouracil]
63 nM	COc1cccc2c1C(=O)c1c(O)c3c(c(O)c1C2=O)C[C@@](O)(C(=O)CO)C[C@@H]3O[C@H]1C[C@H](N)[C@H](O)[C@H](C)O1 [doxorubicin]
500000 nM	NC(=O)NO [hydroxyurea]
4 nM	CC(=O)O[C@H]1C(=O)[C@@]2(C)[C@H]([C@H](OC(=O)c3ccccc3)[C@]3(O)C[C@H](OC(=O)[C@H](O)[C@@H](NC(=O)c4ccccc4)c4ccccc4)C(C)=C1C3(C)C)[C@]1(OC(C)=O)CO[C@@H]1C[C@@H]2O [paclitaxel]
